Columns and labels:
Botrytis cinerea = test: Botrytis test (bean)/protective; type: in vivo; conditions: protective, application rate 500 g/ha, evaluation two days after inoculation, 0% = control, 100% = no infestation
Procedure: [table] To produce an appropriate active ingredient preparation, one part by weight of the active substance is mixed with the specified quantities of solvent and emulsifying agent, and the concentrate is diluted with water to the desired concentration. Young plants are sprayed with the active ingredient preparation at the specified application rate to test the effectiveness of protection. After the sprayed coating has dried, two small pieces of agar with cultured Botrytis cinerea are placed on each leaf. The inoculated plants are placed in a darkened chamber at about 20° C. and 100% relatively humidity. Two days after the inoculation, the size of the infestation spots on the leaves is evaluated. A degree of effectiveness rating of 0% corresponds to the control, with 100% indicating no infestation observed.

Puccinia recondita = test: Puccinia test (wheat)/protective; type: in vivo; conditions: 240 h, protective, application rate 500 g/ha, evaluation ten days after inoculation, 0% = control, 100% = no infestation, read-out: Degree of effectiveness in %
Procedure: [table] To produce an appropriate active ingredient preparation, one part by weight of the active substance is mixed with the specified quantities of solvent and emulsifying agent, and the concentrate is diluted with water to the desired concentration. Young plants are sprayed with the active ingredient preparation at the specified application rate to test the effectiveness of protection. After the sprayed coating has dried, the plants are sprayed with a conidia suspension of Puccinia recondita. The plants are kept in an incubator at 20° C. and 100% relatively humidity for 48 hours. Then the plants are placed in a greenhouse at a temperature of about 20° C. and a relatively humidity of 80%, in order to promote the development of rust spots. The evaluation is performed ten days after the inoculation. A degree of effectiveness rating of 0% corresponds to the control, with 100% indicating no infestation observed.

[1] = logP determination by HPLC on a reverse phase column (C18), EEC Directive 79/831 Annex V.A8; type: physicochemical; conditions: HPLC C18, 43° C.; for logP (pH 2.3): Table 1; for chromatographic logP: reverse phase HPLC column (C18), pH 2.3
Procedure: The specified logP values are determined by HPLC on a reverse phase column (C18) in accordance with EEC Directive 79/831 Annex V.A8. Temperature: 43° C. Eluents for the measurement in the acid range (pH 2.3): 0.1% aqueous phosphoric acid, acetonitrile; linearer gradient of 10% acetonitrile to 90% acetonitrile. Calibration is performed with unbranched alkyl-2-ones (with 3 to 16 carbon atoms) with known logP values (determination of the logP values based on retention times by linear interpolation between two sequential alkyl ketones).

logP (pH 2.3) [1]	Structure (SMILES)	other results
1.06	CC(C)NC(C)c1ccccc1NC(=O)c1cn(C)nc1C(F)(F)F (racemic) [compound 41]	–
3.95	CCC(C)SC(C)c1ccccc1NC(=O)c1sc(C)nc1C(F)F (stereo not shown) [compound 78]	–
4.17	CCC(C)SC(C)c1ccccc1NC(=O)c1ccccc1Cl (stereo not shown) [compound 73]	–
2.53	Cc1nn(C)cc1C(=O)Nc1ccccc1C(C)SC(C)C (stereo not shown) [compound 17]	–
3.38	CCC(C)SC(C)c1ccccc1NC(=O)c1cn(C)nc1C(F)F (stereo not shown) [compound 80]	–
4.33	CCC(C)SC(C)c1ccccc1NC(=O)c1ccccc1I (mixture of isomers) [compound 49]	–
2.90	CCC(C)SC(C)c1ccccc1NC(=O)c1cn(C)nc1C (stereo not shown) [compound 84]	–
4.59	Cn1cc(C(=O)Nc2ccccc2CCO[Si](C)(C)C(C)(C)C)c(C(F)(F)F)n1 [compound 65]	–
3.14	CC(C)OC(C)c1ccccc1NC(=O)c1cn(C)nc1C(F)(F)F (stereo not shown) [compound 127]	–
4.44	Cc1ccccc1C(=O)Nc1ccccc1C(C)SC1CCCC1 (stereo not shown) [compound 99]	–
4.53	CCCC(C)SC(C)c1ccccc1NC(=O)C1=C(C)OCCS1 (stereo not shown) [compound 87]	–
3.05	CC(C)SCc1ccccc1NC(=O)c1cn(C)nc1C(F)(F)F [compound 36]	–
3.90	CC(C)SC(C)c1ccccc1NC(=O)c1ccccc1C(F)(F)F (stereo not shown) [compound 23]	–
3.48	CC(SC1CCCC1)c1ccccc1NC(=O)c1cn(C)nc1C(F)F (stereo not shown) [compound 101]	–
3.76	CC(C)SC(C)c1ccccc1NC(=O)C1=C(C(F)(F)F)OCCS1 (racemic) [compound 30]	–
2.74	CC(C)C(=O)OCc1ccccc1NC(=O)c1cn(C)nc1C(F)(F)F [compound 55]	–
2.40	Cc1nn(C)c(F)c1C(=O)Nc1ccccc1CCOC(=O)C(C)C [compound 67]	–
1.68	CC(C)S(=O)(=O)C(C)c1ccccc1NC(=O)c1cccnc1Cl (stereo not shown) [compound 5]	–
2.89	CC(C)OC(C)c1ccccc1NC(=O)c1cn(C)nc1C(F)F (stereo not shown) [compound 135]	–
3.27	CCCC(C)SC(C)c1ccccc1NC(=O)c1cn(C)nc1C (stereo not shown) [compound 82]	–
3.79	CC(C)SC(C)c1ccccc1NC(=O)c1ccccc1Br (racemic) [compound 26]	–
3.91	CC(C)SC(C)c1ccccc1NC(=O)c1ccccc1I (racemic) [compound 27]	–
1.62	Cn1cc(C(=O)Nc2ccccc2CCO)c(C(F)(F)F)n1 [compound 62]	–
4.31	Cc1occc1C(=O)Nc1ccccc1C(C)SC1CCCC1 (stereo not shown) [compound 91]	–
3.67	CC(C)OC(C)c1ccccc1NC(=O)c1cnn(C)c1C(F)F (stereo not shown) [compound 136]	–
2.38	Cc1sccc1C(=O)Nc1ccccc1C(C)S(=O)(=O)C(C)C (stereo not shown) [Compound No. 4]	–
4.21	CCC(C)SC(C)c1ccccc1NC(=O)c1ccccc1Br (stereo not shown) [compound 83]	–
2.95	CC(C)SC(C)c1ccccc1NC(=O)c1cccnc1Cl (stereo not shown) [compound 22]	–

The next lines start with the molecule.

Structure (SMILES)	logP (pH 2.3) [1]	other results
CCCC(C)SC(C)c1ccccc1NC(=O)c1sc(C)nc1C(F)(F)F (stereo not shown) [drawing 490]	–	Degree of effectiveness in % (Botrytis cinerea): 99%
Cc1nc(C(F)F)c(C(=O)Nc2ccccc2CSC(C)C)s1 [drawing 495]	–	pest or weed control at 500 g/ha (Puccinia recondita): 93%
CC(C)SC(C)c1ccccc1NC(=O)c1cn(C)cc1C(F)(F)F (stereo not shown) [drawing 493]	–	Degree of effectiveness in % (Botrytis cinerea): 97%
CCCC(C)SC(C)c1ccccc1NC(=O)c1cn(C)nc1C(F)F (stereo not shown) [drawing 492]	–	Degree of effectiveness in % (Botrytis cinerea): 97%
CCC(C)SC(C)c1ccccc1NC(=O)c1c(C)nn(C)c1F (stereo not shown) [drawing 497]	–	pest or weed control at 500 g/ha (Puccinia recondita): 100%
CCCC(C)SC(C)c1ccccc1NC(=O)c1sc(C)nc1C(F)F (stereo not shown) [drawing 506]	–	pest or weed control at 500 g/ha (Puccinia recondita): 100%
CCC(C)SC(C)c1ccccc1NC(=O)c1cn(C)nc1C(F)F (stereo not shown) [drawing 507]	–	pest or weed control at 500 g/ha (Puccinia recondita): 100%
CC(C)OC(C)c1ccccc1NC(=O)c1cn(C)nc1C(F)F (stereo not shown) [drawing 499]	–	pest or weed control at 500 g/ha (Puccinia recondita): 100%
Cc1nn(C)c(Cl)c1C(=O)Nc1ccccc1C(C)SC(C)C (stereo not shown)	–	pest or weed control at 500 g/ha (Puccinia recondita): 100%
Cc1nn(C)c(F)c1C(=O)Nc1ccccc1C(C)SC(C)C (stereo not shown) [drawing 502]	–	pest or weed control at 500 g/ha (Puccinia recondita): 100%
CC(C)OC(C)c1ccccc1NC(=O)c1cn(C)nc1C(F)(F)F (stereo not shown) [drawing 500]	–	pest or weed control at 500 g/ha (Puccinia recondita): 100%
CC(C)SC(C)c1ccccc1NC(=O)c1cn(C)cc1C(F)(F)F (stereo not shown) [drawing 510]	–	pest or weed control at 500 g/ha (Puccinia recondita): 100%
CCCC(C)SC(C)c1ccccc1NC(=O)c1c(C)nn(C)c1Cl (stereo not shown)	–	pest or weed control at 500 g/ha (Puccinia recondita): 100%
Cc1nn(C)c(F)c1C(=O)Nc1ccccc1C(C)OC(C)C (stereo not shown)	–	pest or weed control at 500 g/ha (Puccinia recondita): 100%
CC(C)SC(C)c1ccccc1NC(=O)c1cn(C)nc1C(F)(F)F (stereo not shown) [drawing 494]	–	pest or weed control at 500 g/ha (Puccinia recondita): 100%
Cc1nc(C(F)(F)F)c(C(=O)Nc2ccccc2C(C)OC(C)C)s1 (stereo not shown) [compound 133]	3.65	–
Cc1nn(C)c(Cl)c1C(=O)Nc1ccccc1C(C)SC1CCCC1 (stereo not shown)	–	pest or weed control at 500 g/ha (Puccinia recondita): 100%
CC(C)OCc1ccccc1NC(=O)c1cn(C)nc1C(F)(F)F [Compound No. 60, N-[2-(isopropoxymethyl)phenyl]-1-methyl-3-(trifluoromethyl)-1H-pyrazol-4-carboxamide]	–	chromatographic logP [1]: 2.85
CCC(C)SC(C)c1ccccc1NC(=O)c1sccc1C (stereo not shown)	–	pest or weed control at 500 g/ha (Puccinia recondita): 100%
CCC(C)SC(C)c1ccccc1NC(=O)c1cn(C)nc1C(F)(F)F (stereo not shown) [drawing 498]	–	pest or weed control at 500 g/ha (Puccinia recondita): 100%
Cc1sccc1C(=O)Nc1ccccc1C(C)SC1CCCC1 (stereo not shown) [compound 90]	3.16	–
O=C(Nc1ccccc1COC(=O)C(Cl)Cl)c1ccccc1C(F)(F)F [compound 50]	3.15	–
Cc1nc(C(F)(F)F)c(C(=O)Nc2ccccc2C(C)SC2CCCC2)s1 (stereo not shown) [compound 94]	4.24	–

Structure (SMILES)	logP (pH 2.3) [1]	other results
CC(C)SC(C)c1ccccc1NC(=O)c1c(C(F)(F)F)nn(C)c1F (stereo not shown)	–	pest or weed control at 500 g/ha (Puccinia recondita): 96%
CC(C)OC(C)c1ccccc1NC(=O)c1ccccc1C(F)(F)F (stereo not shown) [compound 134]	3.81	–
CC1=C(C(=O)Nc2ccccc2C(C)S(=O)(=O)C(C)C)SCCO1 (stereo not shown) [compound 2]	2.07	–
CC(C)S(=O)(=O)C(C)c1ccccc1NC(=O)c1ccccc1C(F)(F)F (stereo not shown) [Compound No. 6]	2.53	–
CC(C)OCc1ccccc1NC(=O)c1ccccc1C(F)(F)F [compound 54]	2.51	–
CC(C)SCc1ccccc1[N+](=O)[O-] [VII-2, 1-[1-(isopropylthio)methyl]-2-nitrobenzene]	–	chromatographic logP [1]: 3.28
CC(SC1CCCC1)c1ccccc1NC(=O)c1ccccc1Cl (stereo not shown) [compound 92]	4.29	–
CCC(C)SC(C)c1ccccc1NC(=O)c1cn(C)nc1C (stereo not shown) [drawing 504]	–	pest or weed control at 500 g/ha (Puccinia recondita): 100%
Cn1cc(C(=O)Nc2ccccc2COC(=O)C(Cl)Cl)c(C(F)(F)F)n1 [compound 56]	2.69	–
CC1=C(C(=O)Nc2ccccc2C(C)SC(C)C)SCCO1 (stereo not shown) [drawing 509]	–	pest or weed control at 500 g/ha (Puccinia recondita): 100%
CC(C)S(=O)(=O)C(C)c1ccccc1N (stereo not shown) [III-2, 2-[1-(isopropylsulfonyl)ethyl]aniline]	–	chromatographic logP [1]: 1.28
CCC(C)SC(C)c1ccccc1NC(=O)C1=C(C)OCCS1 (stereo not shown) [drawing 508]	–	pest or weed control at 500 g/ha (Puccinia recondita): 100%
Cc1nn(C)c(F)c1C(=O)Nc1ccccc1CCO[Si](C)(C)C(C)(C)C [compound 69]	4.49	–
O=C(Nc1ccccc1COC(=O)C(Cl)Cl)c1cccnc1Cl [compound 58]	2.38	–
CCC(C)SC(C)c1ccccc1NC(=O)c1sc(C)nc1C(F)F (stereo not shown) [drawing 505]	–	pest or weed control at 500 g/ha (Puccinia recondita): 100%
CC(C)S(=O)(=O)Cc1ccccc1[N+](=O)[O-] [VI-3, 1-[(isopropylsulfonyl)methyl]-2-nitrobenzene]	–	chromatographic logP [1]: 1.63
Cc1nc(C(F)F)c(C(=O)Nc2ccccc2C(C)OC(C)C)s1 (stereo not shown) [compound 131]	3.58	–
CCCC(C)SC(C)c1ccccc1NC(=O)c1sc(C)nc1C(F)(F)F (stereo not shown) [drawing 496]	–	pest or weed control at 500 g/ha (Puccinia recondita): 100%
CC(C)SCc1ccccc1NC(=O)C1=C(C(F)(F)F)OCCS1 [compound 37]	3.48	–
COC(C)c1cc(Cl)ccc1NC(=O)c1ccccc1C(F)(F)F (racemic) [compound 33]	3.56	–
Cc1nn(C)c(F)c1C(=O)Nc1ccccc1CCO [compound 63]	1.21	–
CC(C)NC(C)c1ccccc1[N+](=O)[O-] (stereo not shown) [VII-5, N-[1-(2-nitrophenyl)ethyl]propane-2-amine]	–	chromatographic logP [1]: 0.55

Source: patent US7842710B2, “Carboxamides” (Bayer Cropscience AG, priority 2004, dated 2010)
